These are literature values, as cited in patent publication US9718036B2, “Method of preparing carrier liquids” (The University of Liverpool, priority 2011, dated 2017).

The structures appear in SMILES notation. In brackets after ≈: the same amount, converted by molar mass.

For this series the following is noted: at 20° C.

Regarding `CC1(C)C(/C=C(\Cl)C(F)(F)F)C1C(=O)OC(C#N)c1cccc(Oc2ccccc2)c1` (stereo not shown) [λ-cyhalothrin], the solubility in water is 5 µg/mL (≈ 11.1 µM).
